Results on 2 compounds are retold here after publication PMC6471485, “Selective Inhibitors of a Human Prolyl Hydroxylase (OGFOD1) Involved in Ribosomal Decoding” (Chemistry (Weinheim an Der Bergstrasse, Germany), 2019).

The structures appear in SMILES notation. “And” between values parts separate entries of the source, which are not always exact repeats. Equal entries are not always repeated. “Also recorded” adds a separate entry of the source.

In data set [1] the target is T1, OGFOD1 (Homo sapiens, UniProt Q8N543).
T1 sequence (Q8N543 1-542): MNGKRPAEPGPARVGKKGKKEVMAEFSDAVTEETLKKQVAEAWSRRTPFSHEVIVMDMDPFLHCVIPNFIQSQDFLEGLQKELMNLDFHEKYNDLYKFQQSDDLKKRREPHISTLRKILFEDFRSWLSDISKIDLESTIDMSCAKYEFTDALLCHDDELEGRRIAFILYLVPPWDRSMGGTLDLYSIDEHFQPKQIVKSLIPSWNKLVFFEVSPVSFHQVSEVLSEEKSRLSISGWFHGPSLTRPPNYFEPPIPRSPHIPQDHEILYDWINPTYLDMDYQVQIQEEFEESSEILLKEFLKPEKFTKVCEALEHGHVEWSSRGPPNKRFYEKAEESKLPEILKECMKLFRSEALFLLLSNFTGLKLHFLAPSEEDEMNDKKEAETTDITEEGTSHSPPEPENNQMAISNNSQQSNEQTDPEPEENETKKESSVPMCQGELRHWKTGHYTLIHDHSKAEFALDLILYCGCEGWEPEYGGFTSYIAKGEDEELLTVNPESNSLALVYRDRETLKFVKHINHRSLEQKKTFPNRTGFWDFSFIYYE
Put plainly: OGFOD1 inhibition assay: hydroxylation of RPS23 51-70 peptide by MALDI-TOF MS. It counts as biochemical. The settings on record: IC50 against OGFOD1, 1 μM OGFOD1; minimum measurable IC50 0.5 μM; values for 24 and 25 regarded as preliminary. The procedure:
OGFOD1 inhibition assays were performed by determining the extent of hydroxylation of a 20mer fragment of human ribosomal protein S23 (RPS23) containing residues 51-70 (H2N- […]
-CONH2) by matrix-assisted laser desorption/ionization time-of-flight mass spectrometry (MALDI-TOF MS) using a Waters Micromass MALDI micro MX mass spectrometer and MassLynx 4.1, as previously described.[7,8] The optimized hydroxylation assay involved incubation of OGFOD1 (1 µM) with inhibitor (1 % v/v in DMSO) in the presence of (NH4)2Fe(SO4)2 (50 µM), the disodium salt of 2-oxoglutarate (25 µM), […]
OGFOD1 was pre-incubated with inhibitor for 5 min before initiation of the reaction via the addition of the other reagents. Reactions were quenched with formic acid (1 % v/v) after 15 min. Samples were prepared for MALDI using α-cyano-4-hydrocinnamic acid (CHCA; prepared in 50 % acetonitrile) as a matrix. Dose-responses were assessed in 8-point triplicates, normalized to a no enzyme negative control and a no inhibitor positive control. Non-linear regression analysis was performed using Prism (GraphPad). […]

The next data set concerns MDR1-MDCK. Put plainly: MDR1-MDCK in vitro permeability assay (Cyprotex). The settings on record: for cell permeability, in words: MDR1-MDCK; for predicted blood-brain barrier permeability, in words: prediction from MDR1-MDCK assay. The data set is classed as in vitro ADME. The procedure:
(§1) supplemented with 80 µM Zn(II), 70 µM of inhibitor, all in 50 mM Tris-d11, pH 7.5, 10 % D2O, […]
(§2) Cell Culture and Immunoblotting
(§3) HeLa cells were cultured in DMEM media supplemented with 10 % fetal bovine serum, 4 mM L-glutamine, 100 U/mL penicillin, and 100 µg/mL streptomycin. Cells were treated with the indicated compounds, prepared in 1% DMSO, for 5 h. Following a PBS buffer rinse, cells were lysed in urea/SDS buffer supplemented with 1 mM dithiothreitol. Cell extracts were analyzed by SDS-PAGE, electroblotted onto PVDF membranes (Millipore) and probed with anti-HIF-1α antibody (clone 54, BD Transduction Laboratories) at 1:1000 dilution for 1 h at room temperature. The HRP-conjugated secondary antibody was then applied at room temperature for 1 h. Target proteins were detected with SuperSignal Chemiluminescent […]
(§4) ADMET in vitro Predictors
(§5) S9 liver microsome stability assays and MDCK-MDR1 efflux assays were carried out for CCT3 and CCT4 by Cyprotex (UK). Additional details are provided later in the Supporting […]
(§6) The solubility and metabolic stability of CCT3 and CCT4 was preliminarily evaluated using a S9 liver microsome assay (Cyprotex, UK). According to the assay, CCT3 and CCT4 had […]
(§7) respectively, and are thus classified as having low clearance (< 8.6 µL/min/mg protein).
(§8) The cell permeability of CCT3 and CCT4 were evaluated using an MDR1-MDCK in vitro […]
(§9) able to penetrate the blood-brain barrier. The permeability coefficients were determined to be

A short description of data set [2]: MDR1-MDCK in vitro permeability assay (Cyprotex). It counts as in vitro ADME. The settings on record: dog; MDR1-MDCK; read-out: permeability coefficient. On the procedure: as §1, §2, §3, §4, §5, §6, §7, §8, §9
Data set [3] has as its target T1, OGFOD1. Kind of data set: wLOGSY NMR binding experiment with OGFOD1. To be noted: 120 µM inhibitor, 15 µM OGFOD1. On the procedure:
total echo time of 40 ms, a relaxation delay of 2 s, with 256 scans. Water suppression was achieved by presaturation. Samples contained 30 µM apo-PHD2181-426 or OGFOD1, supplemented with 60 µM Zn(II), 30 µM of inhibitor, all in 50 mM Tris-d11, pH 7.5, 10 % D2O, […]
wLOGSY Binding Experiments: For water-ligand observed gradient spectroscopy (wLOGSY) analyses, typical experimental parameters were the following: mixing time, 1 s; relaxation delay, 2 s; number of transients, 512. Solvent excitation was achieved using a 16-ms 180° selective rectangular shape pulse with 1,000 points (Squa100.1000) set at the H2O frequency.
Water suppression was achieved by a 2-ms sinc pulse (Sinc1.1000) at the H2O frequency.
Samples contained 5-fold molar excess inhibitor:protein as detailed in the figure legends; all analyses were in 50 mM Tris-d11, pH 7.5, 10 % D2O, 90 % H2O supplemented with 60 µM […]
Competition Experiments by 2OG Displacement: 2OG displacement assays[12] were performed using CPMG-edited 1H spectra. The PROJECT-CPMG sequence was applied as described by Aguilar et al.[11] The standard experimental parameters used were a total echo time of 40 ms, a relaxation delay of 2 s, with 160 scans. Water suppression was achieved by presaturation. The 2OG methylene resonance at 2.35 ppm was monitored. The percentage 2OG displacement was […]
% 2OG displacement = !2OG%!2OG(0) ×100 […]

A word on the IC50: it is the point on the concentration scale where inhibition reaches its midpoint. For `Cn1c(O)c(C(=O)CCc2cccs2)c(=O)n(C)c1=O` [compound 42], the half-inhibitory concentration (IC50) on OGFOD1 [1] was 690 nM and < 1000 nM. Moreover, the “cell permeability, in words” value in the data set on MDR1-MDCK was “good cell permeability properties”. Besides, in the data set with MDR1-MDCK (listed as CCT4), the “predicted blood-brain barrier permeability, in words” value is reported as “brain uptake is likely; also recorded: predicted to be permeable to the blood brain barrier”. Also, the Papp in data set [2] turned out to be 62.7 ×10⁻⁶ cm/s. Moreover, the “binding to OGFOD1 by wLOGSY NMR, in words” value at OGFOD1 [3] is listed as “indicates a binding interaction”.

As for `Cn1c(O)c(C(=O)CCc2ccccc2)c(=O)n(C)c1=O` [compound 26], on OGFOD1 [1], the IC50 is 700 nM and 730 nM and < 1000 nM. In addition, in the data set with MDR1-MDCK, the “cell permeability, in words” value is “good cell permeability properties”. Also, the “predicted blood-brain barrier permeability, in words” value in the data set on MDR1-MDCK (listed as CCT3) is “brain uptake is likely; also recorded: predicted to be permeable to the blood brain barrier”. Moreover, the Papp in data set [2] stood at 58.5 ×10⁻⁶ cm/s. Moreover, the “binding to OGFOD1 by wLOGSY NMR, in words” value at OGFOD1 [3] is reported as “indicates a binding interaction”.
